Values belong to the molecule of their own block, whether it stands above or below them.
Legend:
CYP17 = settings: Figure 1, known CYP17 inhibitors; cited from earlier work
NCI-H522 = assay: NCI-60 SRB screen; type: cell-based, human; settings: NCI-H522; single dose 10^−5 M
NCI-H460 = assay: NCI-60 SRB screen; type: cell-based, human; settings: NCI-H460; single dose 10^−5 M
M14 = assay: NCI-60 SRB screen; type: cell-based, human; settings: M14; single dose 10^−5 M
IGROV1 = assay: NCI-60 SRB screen; type: cell-based, human; settings: IGROV1; single dose 10^−5 M
HL-60(TB) = assay: NCI-60 SRB screen; type: cell-based, human; settings: HL-60 (TB); single dose 10^−5 M
HCT-15 = assay: NCI-60 SRB screen; type: cell-based, human; settings: HCT-15; single dose 10^−5 M
UACC-257 = assay: NCI-60 SRB screen; type: cell-based, human; settings: UACC-275 (so in the source); single dose 10^−5 M
OVCAR-8 = assay: NCI-60 SRB screen; type: cell-based, human; settings: OVCAR-8; single dose 10^−5 M
OVCAR-3 = assay: NCI-60 SRB screen; type: cell-based, human; settings: OVCAR-3; single dose 10^−5 M
OVCAR-4 = assay: NCI-60 SRB screen; type: cell-based, human; settings: OVCAR-4; single dose 10^−5 M
MALME-3M = assay: NCI-60 SRB screen; type: cell-based, human; settings: single dose 10^−5 M
SK-MEL-28 = assay: NCI-60 SRB screen; type: cell-based; settings: SK-MEL-28; single dose 10^−5 M
ACHN = assay: NCI-60 SRB screen; type: cell-based; settings: single dose 10^−5 M
HT-29 = assay: NCI-60 SRB screen; type: cell-based; settings: HT-29; single dose 10^−5 M
RPMI-8226 = assay: NCI-60 SRB screen; type: cell-based; settings: RPMI-8226; single dose 10^−5 M
786-0 = assay: NCI-60 SRB screen; type: cell-based; settings: 786-0; single dose 10^−5 M
KM12 = assay: NCI-60 SRB screen; type: cell-based, human; settings: KM12; single dose 10^−5 M
EKVX = assay: NCI-60 SRB screen; type: cell-based, human; settings: single dose 10^−5 M
SR = assay: NCI-60 SRB screen; type: cell-based; settings: single dose 10^−5 M
HOP-92 = assay: NCI-60 SRB screen; type: cell-based, human; settings: HOP-92; single dose 10^−5 M
UACC-62 = assay: NCI-60 SRB screen; type: cell-based, human; settings: UACC-62; single dose 10^−5 M
SF-268 = assay: NCI-60 SRB screen; type: cell-based, human; settings: SF-268; single dose 10^−5 M
CCRF-CEM = assay: NCI-60 SRB screen; type: cell-based; settings: single dose 10^−5 M
A549/ATCC = assay: NCI-60 SRB screen; type: cell-based, human; settings: single dose 10^−5 M
UO-31 = assay: NCI-60 SRB screen; type: cell-based, human; settings: UO-31; single dose 10^−5 M
A498 = assay: NCI-60 SRB screen; type: cell-based, human; settings: A498; single dose 10^−5 M
MOLT-4 = assay: NCI-60 SRB screen; type: cell-based; settings: MOLT-4; single dose 10^−5 M
U251 = assay: NCI-60 SRB screen; type: cell-based, human; settings: U251; single dose 10^−5 M
SNB-19 = assay: NCI-60 SRB screen; type: cell-based; settings: SNB-19; single dose 10^−5 M
RXF 393 = assay: NCI-60 SRB screen; type: cell-based, human; settings: RXF 393; single dose 10^−5 M
SK-OV-3 = assay: NCI-60 SRB screen; type: cell-based, human; settings: SK-OV-3; single dose 10^−5 M
HOP-62 = assay: NCI-60 SRB screen; type: cell-based, human; settings: HOP-62; single dose 10^−5 M
SNB-75 = assay: NCI-60 SRB screen; type: cell-based, human; settings: SNB-75; single dose 10^−5 M
NCI/ADR-RES = assay: NCI-60 SRB screen; type: cell-based, human; settings: single dose 10^−5 M
NCI-H23 = assay: NCI-60 SRB screen; type: cell-based, human; settings: NCI-H23; single dose 10^−5 M
HCT-116 = assay: NCI-60 SRB screen; type: cell-based, human; settings: HCT-116; single dose 10^−5 M
SK-MEL-2 = assay: NCI-60 SRB screen; type: cell-based, human; settings: SK-MEL-2; single dose 10^−5 M
K-562 = assay: NCI-60 SRB screen; type: cell-based, human; settings: K-562; single dose 10^−5 M
SF-539 = assay: NCI-60 SRB screen; type: cell-based, human; settings: SF-539; single dose 10^−5 M
MDA-MB-435 = assay: NCI-60 SRB screen; type: cell-based; settings: MDA-MB435; single dose 10^−5 M
NCI-H322M = assay: NCI-60 SRB screen; type: cell-based, human; settings: single dose 10^−5 M
SW-620 = assay: NCI-60 SRB screen; type: cell-based; settings: SW-620; single dose 10^−5 M
CAKI-1 = assay: NCI-60 SRB screen; type: cell-based, human; settings: CAKI-1; single dose 10^−5 M
SN12C = assay: NCI-60 SRB screen; type: cell-based, human; settings: SN 12 C; single dose 10^−5 M
SK-MEL-5 = assay: NCI-60 SRB screen; type: cell-based, human; settings: SK-MEL-5; single dose 10^−5 M
TK-10 = assay: NCI-60 SRB screen; type: cell-based, human; settings: TK-10; single dose 10^−5 M
COLO 205 = assay: NCI-60 SRB screen; type: cell-based, human; settings: COLO 205; single dose 10^−5 M
NCI-H226 = assay: NCI-60 SRB screen; type: cell-based, human; settings: NCI-H226; single dose 10^−5 M
OVCAR-5 = assay: NCI-60 SRB screen; type: cell-based, human; settings: OVCAR-5; single dose 10^−5 M
SF-295 = assay: NCI-60 SRB screen; type: cell-based, human; settings: SF-295; single dose 10^−5 M
[1] = tested on: panel of 60 cancer cell lines; assay: NCI-60 SRB screen, mean or range over the panel; type: cell-based, human; settings: mean over the cell lines; single dose 10^−5 M
HCC-2998 = assay: NCI-60 SRB screen; type: cell-based, human; settings: HCC-2998; single dose 10^−5 M
LOX IMVI = assay: NCI-60 SRB screen; type: cell-based, human; settings: single dose 10^−5 M

SMILES: CNC(=O)c1ccc(N2C(=S)N(c3cnc(C#N)c(C(F)(F)F)c3)C(=O)C23CCC3)cc1F [Apalutamide, apalutamide]
- IC50 (CYP17): 15 nM

SMILES: Cc1ccncc1N1CCN(c2ccnc(Cl)c2)C1=O [CFG920]
- IC50 (CYP17): 23 nM

- melting point: 200 to 202 °C
SMILES: O=C1C(=Cc2cccc([N+](=O)[O-])c2)Sc2c(F)cccc21 [Compound 2d, 7-Fluoro-2-(3-nitrobenzylidene)[1]benzothiophen-3(2H)-one]

SMILES: O=C1Cc2c(sc3c(F)cccc23)C(c2cccc([N+](=O)[O-])c2)N1 (stereo not drawn) [Compound 3d]
- Growth inhibition (%) (NCI-H522): 17.55%
- Growth inhibition (%) (NCI-H460): 0.53%
- Growth inhibition (%) (M14): 1.35%
- Growth inhibition (%) (IGROV1): 20.45%
- Growth inhibition (%) (HL-60(TB)): 12.00%
- Growth inhibition (%) (HCT-15): 21.33%
- Growth inhibition (%) (UACC-257): −7.53%
- Growth inhibition (%) (OVCAR-8): 2.86%
- Growth inhibition (%) (OVCAR-3): 0.09%
- Growth inhibition (%) (OVCAR-4): −1.20%
- Growth inhibition (%) (MALME-3M): −6.36%
- Growth inhibition (%) (SK-MEL-28): −9.19%
- Growth inhibition (%) (ACHN): 6.70%
- Growth inhibition (%) (HT-29): 0.03%
- Growth inhibition (%) (RPMI-8226): 29.04%
- Growth inhibition (%) (786-0): −10.00%
- Growth inhibition (%) (KM12): 3.93%
- Growth inhibition (%) (EKVX): 7.98%
- Growth inhibition (%) (SR): 23.81%
- Growth inhibition (%) (HOP-92): 10.96%
- Growth inhibition (%) (UACC-62): 14.07%
- Growth inhibition (%) (SF-268): 14.60%
- Growth inhibition (%) (CCRF-CEM): 0.90%
- Growth inhibition (%) (A549/ATCC): −5.27%
- Growth inhibition (%) (UO-31): 34.84%
- Growth inhibition (%) (A498): 4.88%
- Growth inhibition (%) (MOLT-4): 2.90%
- Growth inhibition (%) (U251): 20.57%
- Growth inhibition (%) (SNB-19): 6.23%
- Growth inhibition (%) (RXF 393): −5.23%
- Growth inhibition (%) (SK-OV-3): −3.95%
- Growth inhibition (%) (HOP-62): 14.32%
- Growth inhibition (%) (SNB-75): 21.53%
- Growth inhibition (%) (NCI/ADR-RES): 4.50%
- Growth inhibition (%) (NCI-H23): 1.04%
- Growth inhibition (%) (HCT-116): 23.07%
- Growth inhibition (%) (SK-MEL-2): −1.12%
- Growth inhibition (%) (K-562): 15.78%
- Growth inhibition (%) (SF-539): 6.60%
- Growth inhibition (%) (MDA-MB-435): −3.38%
- Growth inhibition (%) (NCI-H322M): 2.78%
- Growth inhibition (%) (SW-620): 2.40%
- Growth inhibition (%) (CAKI-1): 21.82%
- Growth inhibition (%) (SN12C): 4.04%
- Growth inhibition (%) (SK-MEL-5): 5.55%
- Growth inhibition (%) (TK-10): −52.28%
- Growth inhibition (%) (COLO 205): −7.27%
- Growth inhibition (%) (NCI-H226): 21.32%
- Growth inhibition (%) (OVCAR-5): −8.70%
- Growth inhibition (%) (SF-295): 2.30%
- Mean growth inhibition (%) [1]: 6.24%
- Growth inhibition (%) (HCC-2998): −6.11%
- Growth inhibition (%) (LOX IMVI): 12.77%

SMILES: C[C@]12CC[C@H](O)CC1=CC[C@@H]1[C@@H]2CC[C@]2(C)C(n3cnc4ccccc43)=CC[C@@H]12 [Galeterone]
- IC50 (CYP17): 300 nM

SMILES: Oc1ccc2sc3c(c2c1)CCN(Cc1cccnc1)C3 [VIc]
- IC50 (CYP17): 20.9 nM

SMILES: N#Cc1ccc2sc3c(c2c1)CCN(Cc1cccnc1)C3 [VId]
- IC50 (CYP17): 257 nM

SMILES: c1ccc2c(c1)[nH]c1cc(Cc3cnc[nH]3)ccc12 [YM-116]
- IC50 (CYP17): 228 nM
